For one compound, IC50 results are on record in ChEMBL document CHEMBL1139815, “Synthesis and characterization of a pegylated derivative of 3-(1,2,3,6-tetrahydro-pyridin-4yl)-1H-indole (IDT199): a high affinity SERT ligand for conjugation to quantum dots” (Bioorg Med Chem Lett, 2007).

This experiment concerns the target Sodium-dependent serotonin transporter (Homo sapiens, UniProt P31645). Description: Displacement of [3H]serotonin from human SERT expressed in HeLa cells. It counts as cell-based. For orientation: Displacement assays read how much labelled ligand stays bound in the presence of the test substance.

Sequence of Sodium-dependent serotonin transporter (P31645 whole entry): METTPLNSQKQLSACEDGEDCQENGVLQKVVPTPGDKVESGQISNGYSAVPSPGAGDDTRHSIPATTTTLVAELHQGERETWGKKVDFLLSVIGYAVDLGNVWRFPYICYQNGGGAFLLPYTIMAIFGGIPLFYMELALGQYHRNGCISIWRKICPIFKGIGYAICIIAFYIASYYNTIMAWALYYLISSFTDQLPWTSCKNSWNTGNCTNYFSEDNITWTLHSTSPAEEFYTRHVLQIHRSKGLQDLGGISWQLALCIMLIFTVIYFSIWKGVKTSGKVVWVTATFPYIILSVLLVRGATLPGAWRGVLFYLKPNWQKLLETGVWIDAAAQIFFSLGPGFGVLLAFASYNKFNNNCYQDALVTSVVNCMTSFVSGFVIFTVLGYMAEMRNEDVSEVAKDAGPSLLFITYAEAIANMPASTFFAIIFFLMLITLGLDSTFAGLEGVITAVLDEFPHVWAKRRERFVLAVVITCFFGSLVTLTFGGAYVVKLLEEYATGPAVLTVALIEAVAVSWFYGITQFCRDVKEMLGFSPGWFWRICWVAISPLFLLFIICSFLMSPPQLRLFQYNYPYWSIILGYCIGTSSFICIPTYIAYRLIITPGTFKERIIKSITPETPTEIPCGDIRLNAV

`NCCCCCCCCCCCN1CCC(c2c[nH]c3ccccc23)CC1` gave an IC50 of 25 nM.

As a reminder, the IC50 is the midpoint of a concentration-inhibition curve.
